Data from patent EP0623672A1, “New alkaline serine protease of Paecilomyces lilacinus” (RESEARCH INSTITUTE FOR PLANT PROTECTION, priority 1993, dated 1994).
Read-outs that look alike come from different tables or passages of the source.

What was measured:
[1] = target: serine protease of Paecilomyces lilacinus (Purpureocillium lilacinum, UniProt Q01471); assay type: biochemical
Experimental: (§1) Protease activity was determined by a modified procedure of Rinderknecht et al. (1968). Ten mg of Hide Powder Azure (Sigma) was incubated in 50 mM Sodium acetate buffer pH 6.0 with the sample in a final volume of 3 ml in small glass containers. Incubation was at 37 °C in a shaking waterbath (110 strokes(min) till the solution turned blue (between 5 and 30 minutes). Following incubation the samples were put on ice and centrifuged in 1.5 ml Eppendorf cups for 5 minutes at 14.000 g. The absorbance of the supernatant was measured at 595 nm on a Uvikon 940 spectrophotometer. Protease activity of the sample was measured in duplo, averaged and expressed as A₅₉₅ ml⁻¹hr⁻¹ after correction for the blank (Milli Q water).
Several protease inhibitors, SH reducing agents and metal ions were tested on the proteolytic activity of the protease: PMSF, E64, 1.10-phenantroline, pepstatine (Sigma); EDTA, cystein MgCl₂ and CaCl₂ (Merck); DTT (BioRad). The purified enzyme was incubated for 40 minutes at 4 °C with inhibitor. After incubation the protease-activity was determined as previously described. Final inhibitor concentration was 1 mM. Protease activity in the absence of inhibitor was expressed as 100 %.

[2] = test system: Paecilomyces lilacinus; test: Catabolite repression of protease induction in liquid culture; assay type: cell-based; conditions: glucose 0.3 % added each day to MNNC (chitin as substrate); mycelium as inoculum; Figure 2
Experimental: In one experiment mycelium of Paecilomyces lilacinus was used as inoculum. Mycelium was obtained by centrifuging a 6 day old culture of conidia of P. lilacinus in MMNG for 45 minutes at 9000 g. Cultures were grown in a shaking waterbath for several days at 30 °C and 125 strokes per minute. Culture filtrates were obtained by centrifuging cultures for 45 min at 9000 g. Supernatants were concentrated using an Amicon (YM-10 filter) and clarified through a 0.22 µm-filter (Schleicher & Schuell). Pellets were freeze dried and the weigth of the mycelium was measured.
as §1, with “Ten mg of Hide Powder Azure (Sigma) was incubated in 50 mM Sodium acetate buffer pH 6.0 with the sample in a final volume of 3 ml in small glass containers.” left out
To see whether the fungus used glucose as carbon sourece, glucose concentrations were determined in the culture filtrate, of the fungus in MNNG (Figure 1). […]

[3] = test system: proteolytic activity in the culture filtrate; test: Inhibition of proteolytic activity in the culture filtrate by protease inhibitors; assay type: biochemical, Paecilomyces lilacinus
Experimental: as §1
To identify the nature of the protease the proteolytic activity in the culture filtrate was inhibited with several protease inhibitors. […] Purification of the serine protease(s) was first performed with Benzamidine-Sepharose, an affinity resin for serine proteases of class I (Pharmacia).

[4] = 1 mM final, 40 minutes at 4 °C, Figure 7

Chain of serine protease of Paecilomyces lilacinus (Q01471 entry or part of it): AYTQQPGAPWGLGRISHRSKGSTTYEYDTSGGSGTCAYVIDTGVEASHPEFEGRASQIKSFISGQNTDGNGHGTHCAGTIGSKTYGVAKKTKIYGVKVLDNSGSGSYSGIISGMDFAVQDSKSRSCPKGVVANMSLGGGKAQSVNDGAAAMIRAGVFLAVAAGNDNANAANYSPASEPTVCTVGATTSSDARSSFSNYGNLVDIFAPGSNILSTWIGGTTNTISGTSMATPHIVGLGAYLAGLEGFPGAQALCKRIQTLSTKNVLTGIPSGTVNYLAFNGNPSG

Compound	effect on the proteolytic activity of the purified protease [1, 4]	further results
O=C(O)CN(CCN(CC(=O)O)CC(=O)O)CC(=O)O [EDTA]	–	effect on the proteolytic activity of the purified protease [1]: enhanced its activity
OC[C@H]1OC(O)[C@H](O)[C@@H](O)[C@@H]1O (some centres unmarked) [glucose]	–	induction of protease activity [2]: repressed
OC(CS)C(O)CS (centres unmarked) [DTT]	did not influence its activity	–
N[C@@H](CS)C(=O)O [cystein]	did not influence its activity	–
CaCl₂ [Ca⁺⁺]	lowered the protease activity slightly	–
MgCl₂ [Mg⁺⁺]	lowered the protease activity slightly	–
O=S(=O)(F)Cc1ccccc1 [PMSF]	–	inhibition of the proteolytic activity in the culture filtrate [3]: most of the protease activity present in the medium was inhibited; inhibition of the activity of the purified protease ([1]; inhibitor 1 mM final, 40 minutes at 4 °C, activity without inhibitor = 100 %, Figure 7): 100%
